# Ends that are not written are not given here.
# Columns and labels:
# pregnant mice [1] = experiment: Systolic blood pressure (tail-cuff plethysmography) in pregnant mice given TLR agonists with or without TPP; assay type: in vivo, C57BL/6 mice; conditions: pregnant mice treated with TLR agonist alone, day 17
# Procedure: (§1) Experimental Design: C57BL/6 female mice were bred with male C57BL/6 mice. At day 13 mice were injected IP with vehicle, Poly I:C (SIGMA PO913 50 mg), CLO097 (Invivogen tlrl-C95-5), or R837 (Invivogen tlrl imq) with or without TPP (FRIMAVLAS (SEQ ID NO: 5). Mice were injected a total of 3 times, every other day. At day 18 mice were euthanized, uterus/pups, blood, blood vessels, and spleen were removed.
# Blood Pressure: Systolic arterial blood pressure was measured by tail-cuff plethysmography. […] were trained for three days prior to data collection. Animals were warmed to 32° C. and measurements were taken using an IITC Model 59 amplifier (Woodland Hills, Calif.), a system which correlates well with telemetry measurements of systolic blood pressure.
# Pregnant mice (P) were treated with one of three TLR agonists to induce a physiological condition which mimics preeclampsia. Poly I:C is a TLR3 agonist and is well established in inducing characteristics of preeclampsia in mice. R837 is a […] activator of TLR7 but not TLR8. Similar to Poly I:C R837 induces characteristics of preeclampsia in mice. CLO097 is a […] that activates TLR7 and TLR8. While CLO097 induces some of the characteristics of preeclampsia the response is somewhat muted. […] The blood pressure of each mouse was measured on day 17 following treatment.
# Aortic rings = experiment: Vasodilation/endothelial function of aortic rings (isometric force transducer); assay type: in vivo; conditions: vessels of TLR agonist-treated pregnant mice, phenylephrine contraction, acetylcholine relaxation
# Procedure: Experimental Design: Mice were treated as described in Example 1.
# Vasodilation/Endothelial Function: Aortic rings were connected to an isometric force transducer in a custom-made 15-ml organ chamber filled with 37° C. physiological salt solution (119 mM NaCl, 4.7 mM KCl, 25 mM NaHCO3, 1.18 mM KH2PO4, 1.17 mM MgSO4-7H2O, 11.1 mM Dextrose, 2.5 mM CaCl2) with 95% O2-5% CO2. All experiments were performed in the presence of indomethacin […] to inhibit prostacyclin production by cyclooxygenase. Passive tension on the vessels was set at 400 mg based on previously generated length-tension curves, and isometric force generation was recorded continuously with a PowerLab system (AD Instruments, Colorado Springs, Colo.). After a 60-min equilibration period, vessels were contracted with phenylephrine […] and repeated until reproducible contractions were obtained. […] was administered to test the functional integrity of endothelium as measured by a relaxation response. Concentration-response curves were obtained in a half-log, cumulative fashion in response to acetylcholine (1 nM to […]) following contraction to an EC70 concentration of phenylephrine. Relaxation responses were expressed as percent relaxation from phenylephrine-induced contraction. […]
# [2] = system: splenic CLIP+γδ T and B cells; experiment: Splenic CLIP+ γδ T cells and B cells after TLR3 or TLR7 activation in pregnant mice (flow cytometry); assay type: in vivo; conditions: for splenic CLIP+γδ T cells: pregnant mice treated with TLR agonist versus vehicle-treated pregnant controls
# From the text: Next, it was important to determine whether this effect also happens in vivo. Therefore, we tested whether TLR activation via TLR3 or TLR7, which cause PE in mice only if they are pregnant, increases splenic CLIP+γδ T and B cells in mice.
# It was shown that MHC class II engagement, in the absence of antigen receptor engagement, can lead to the death of APCs including B cells. Since TLR-mediated activation of B cells results in ectopic CLIP expression (FIGS. 11 and 12) we sought to determine whether CLIP serves as a negative regulator of B cell death. To test this mouse splenic B cells from C57B16 mice or CLIP KO mice were activated, with or without a TLR agonist, for 48 hrs. […] Splenocytes were analyzed by flow cytometry.
# [3] = system: CLIP on the surface of B220 cells; experiment: Immune cell markers on splenocytes: CLIP on B220 cells; assay type: in vivo; conditions: pregnant mice, Poly I:C alone
# Procedure: Experimental Design: Mice were treated as described in Example 1. Splenocytes were isolated and stained for CD3, CD4, CD8, CD11b, Ly6G/C, CD25, FoxP3, CD19, B220, CD5, CLIP, and Gamma Delta TCR.
# FIG. 9 is a set of graphs that depicts the removal of all CLIP (9A) versus bright CLIP (9B) and FIG. 9C from the surface of B220 cells. […] TLR agonists include CLO097; R837, and Poly I:C. FIG. 9C depicts the percentage of CLIP+cells resulting from Poly I:C stimulation with and without TPP.
# pregnant mice [4] = experiment: Total number of pups and malformed pups at day 18; assay type: in vivo, C57BL/6 mice; conditions: day 18, versus normal pregnancies or pregnancies treated with TLR agonists
# Procedure: as §1
# The number of pups and malformed pups was relatively consistent across all groups at this time point.
# [5] = system: pregnant mice with PE induced by TLR3 or TLR7 activation; experiment: Prevention of TLR3/TLR7-induced PE in pregnant mice, daily TPP gestational days 13-17; assay type: in vivo
# From the text: FIG. 14 is a series of graphs depicting results from the daily administration of the CLIP-displacing peptide TPP. Daily administration of the CLIP-displacing peptide TPP (“Pep”-gestational days 13-17) prevented the development of hypertension, endothelial dysfunction, proteinuria, fetal demise, increased γδT cells, and decreased regulatory T cells in pregnant (P) mice treated with the TLR7 agonist R837 (PR mice) or the TLR3 agonist poly I:C (PPIC mice) on gestational days 13, 15, and 17.
# TPP was utilized to displace CLIP on immune cells in mice during pregnancy.
Compound,blood pressure (pregnant mice [1]),relaxation response (Aortic rings),splenic CLIP+γδ T cells [2],CLIP+ B cells [3],B cell death (splenic B cells) ([2]; PE mice versus normal pregnancy),number of malformed pups (pregnant mice [4]),total number of pups (pregnant mice [4]),"safety, side effects on the mother or the pups [5]"
CC(C)Cn1cnc2c(N)nc3ccccc3c21 [R837],significantly increased blood pressure,relaxation response is delayed,increased significantly,,,,,
Poly I:C,significantly increased blood pressure,relaxation response is delayed,increased significantly,significant increase,did not experience the increase in B cell death,,,
"FRIMAVLAS [TPP, FRIMAVLAS]",,,,,,caused no increase,caused no increase,safe in mice and has no side effects on the mother or the pups
